In patent publication US12109218B2, “Compositions of grapiprant and methods for using the same” (ARATANA THERAPEUTICS, INC., priority 2014, dated 2024):
Read-outs that look alike come from different tables or passages of the source.

Columns and labels:
[1] = tested on: other human prostanoid receptor subtypes; details: cited from earlier work
[2] = Dose linearity and effect of feeding, PK in cats (Example 10); format: in vivo, cat; details: for Cmax / AUC(0-inf) / Tmax / half-life / AUC(0-t): serum, po
Experimental: Grapiprant was blended in a mixture of excipients as shown in Table 14 and administered orally by capsule to male and female cats.
The day of dosing was defined as Day 0. Following dosing, the animals were evaluated for clinical signs. Blood samples were collected prior to dosing and at 0.25, 0.5, 1, 2, 4, 8, 12, and 24-hours postdose. The blood samples were processed to serum and analyzed for grapiprant concentration. There were no test article-related clinical signs. The mean grapiprant pharmacokinetic results were as follow in Table 16.

onychectomy in cats = assay: Onychectomy pain model in cats (Example 5); format: in vivo, cat; details: vs placebo
Text: The objective of this pilot study was to validate that this model/pain scoring system can differentiate positive from negative control animals in controlling the pain and inflammation of onychectomy and to test the effectiveness of a single dose of grapiprant in controlling the pain and inflammation associated with onychectomy in cats.
Following an acclimation period of 7, 8, or 9 days, a total of 30 adult cats were randomly divided between three treatment groups with ten animals assigned to each group. All animals were randomly assigned to a given surgery day such that within each day, an equal number of cats was from each treatment group. Within each day, the order of surgery was also randomized. […]
Surgical Procedure. […] During surgical procedures, each animal was monitored for at least heart rate and respiratory rate. […] Following surgery, each animal was periodically monitored until full recovery. […] Extubation time (time zero=T0) was recorded as the end of surgery.
All study animals were scored for sedation and analgesia the following schedule in Table 10. […]
Analgesia scores were given at specified time points during the study. […] Analgesia was scored by the same assessor during the first 8 hours of the study. […]
Results. The cat was evaluated as the experimental unit. Differences between treatment groups were evaluated at alpha of 0.05. […]

dog EP4 receptors = dog EP4 receptors (Canis lupus familiaris, UniProt A0A8I3MI92); details: dog EP4 receptor; read-out: Ki, inhibition of [3H]PGE binding; cited from earlier work
Sequence of dog EP4 receptors (A0A8I3MI92 1-492): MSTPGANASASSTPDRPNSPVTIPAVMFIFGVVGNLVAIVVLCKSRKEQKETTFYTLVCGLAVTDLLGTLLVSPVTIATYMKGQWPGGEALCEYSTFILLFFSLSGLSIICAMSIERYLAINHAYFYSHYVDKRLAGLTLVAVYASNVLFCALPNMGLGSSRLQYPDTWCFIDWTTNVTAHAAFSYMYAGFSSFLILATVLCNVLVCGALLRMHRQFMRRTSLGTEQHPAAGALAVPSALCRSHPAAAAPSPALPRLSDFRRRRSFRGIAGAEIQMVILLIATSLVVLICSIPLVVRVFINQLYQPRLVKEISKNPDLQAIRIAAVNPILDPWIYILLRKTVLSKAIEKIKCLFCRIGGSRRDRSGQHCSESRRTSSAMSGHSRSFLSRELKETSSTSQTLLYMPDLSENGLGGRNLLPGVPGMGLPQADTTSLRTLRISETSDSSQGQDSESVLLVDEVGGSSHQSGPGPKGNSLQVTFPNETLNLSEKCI

CCc1nc2c(C)nc(C)cc2n1-c1ccc(CCNC(=O)NS(=O)(=O)c2ccc(C)cc2)cc1 [grapiprant, N-{2-[4-(2-ethyl-4,6-dimethyl-1H-imidazo[4,5-c]pyridin-1-yl)phenyl]ethyl}-N′-[(4-methylphenyl)sulfonyl]urea]
selectivity for EP4 over other human prostanoid receptor subtypes [1]: highly selective for the EP4 receptor over other human prostanoid receptor subtypes | Cmax ([2]; both sexes, 2 mg/kg, Group 1 fed cats, single oral 2 mg/kg capsule, males and females, read-out: Mean Cmax): 327 to 407 ng/mL | AUC(0-inf) ([2]; both sexes, 2 mg/kg, Group 1 fed cats, single oral 2 mg/kg capsule, males and females, read-out: mean AUC0-∞): 1070 to 1220 ng·h/mL | Tmax ([2]; both sexes, 2 mg/kg, Group 1 fed cats, single oral 2 mg/kg capsule, males and females, read-out: mean Tmax): 1.33 to 1.65 h | half-life ([2]; both sexes, 2 mg/kg, Group 1 fed cats, single oral 2 mg/kg capsule, males and females, read-out: mean terminal half-life): 2.4 to 3.12 h | Cmax ([2]; both sexes, 2 mg/kg, Group 2 fasted cats, single oral 2 mg/kg capsule, males and females, read-out: Mean Cmax): 1100 to 1630 ng/mL | AUC(0-inf) ([2]; both sexes, 2 mg/kg, Group 2 fasted cats, single oral 2 mg/kg capsule, males and females, read-out: mean AUC0-∞): 1970 to 2850 ng·h/mL | Tmax ([2]; both sexes, 2 mg/kg, Group 2 fasted cats, single oral 2 mg/kg capsule, males and females, read-out: mean Tmax): 1.01 h | half-life ([2]; both sexes, 2 mg/kg, Group 2 fasted cats, single oral 2 mg/kg capsule, males and females, read-out: mean terminal half-life): 1.47 to 2.16 h | Cmax ([2]; both sexes, 6 mg/kg, Group 3 fasted cats, single oral 6 mg/kg capsule, males and females, read-out: Mean Cmax): 2970 to 3110 ng/mL | AUC(0-inf) ([2]; both sexes, 6 mg/kg, Group 3 fasted cats, single oral 6 mg/kg capsule, males and females, read-out: mean AUC0-∞): 3750 to 6350 ng·h/mL | Tmax ([2]; both sexes, 6 mg/kg, Group 3 fasted cats, single oral 6 mg/kg capsule, males and females, read-out: mean Tmax): 0.99 to 1.17 h | half-life ([2]; both sexes, 6 mg/kg, Group 3 fasted cats, single oral 6 mg/kg capsule, males and females, read-out: mean terminal half-life): 2.79 to 4.98 h | Cmax ([2]; both sexes, 10 mg/kg, Group 4 fasted cats, single oral 10 mg/kg capsule, males and females, read-out: Mean Cmax): 4280 to 7130 ng/mL | AUC(0-inf) ([2]; both sexes, 10 mg/kg, Group 4 fasted cats, single oral 10 mg/kg capsule, males and females, read-out: mean AUC0-∞): 7580 to 10900 ng·h/mL | Tmax ([2]; both sexes, 10 mg/kg, Group 4 fasted cats, single oral 10 mg/kg capsule, males and females, read-out: mean Tmax): 0.728 to 1.33 h | half-life ([2]; both sexes, 10 mg/kg, Group 4 fasted cats, single oral 10 mg/kg capsule, males and females, read-out: mean terminal half-life): 4.03 to 4.19 h | tolerability ([2]; cats, one-time oral capsule, 2 (fed and fasted), 6, and 10 mg/kg): well-tolerated with no test article-related clinical signs | dose linearity of exposure (AUC0-∞) ([2]; fasted cats, Groups 2-4, 2-10 mg/kg): roughly dose-linear but less than dose-proportional | AUC(0-t) ([2]; female, 2 mg/kg, cats, Group 1, 2 mg/kg capsule, Fed, Female, mean): 990 ng·h/mL | AUC(0-inf) ([2]; female, 2 mg/kg, cats, Group 1, 2 mg/kg capsule, Fed, Female, mean, read-out: AUC0-∞): 1070 ng·h/mL | Cmax ([2]; female, 2 mg/kg, cats, Group 1, 2 mg/kg capsule, Fed, Female, mean, read-out: Cmax): 327 ng/mL | Tmax ([2]; female, 2 mg/kg, cats, Group 1, 2 mg/kg capsule, Fed, Female, mean, read-out: Tmax): 1.33 h | half-life ([2]; female, 2 mg/kg, cats, Group 1, 2 mg/kg capsule, Fed, Female, mean, read-out: t1/2 (converted)): 2.4 h | AUC(0-t) ([2]; female, 2 mg/kg, cats, Group 2, 2 mg/kg capsule, Fasted, Female, mean): 2780 ng·h/mL | AUC(0-inf) ([2]; female, 2 mg/kg, cats, Group 2, 2 mg/kg capsule, Fasted, Female, mean, read-out: AUC0-∞): 2850 ng·h/mL | Cmax ([2]; female, 2 mg/kg, cats, Group 2, 2 mg/kg capsule, Fasted, Female, mean, read-out: Cmax): 1630 ng/mL | Tmax ([2]; female, 2 mg/kg, cats, Group 2, 2 mg/kg capsule, Fasted, Female, mean, read-out: Tmax): 1.01 h | half-life ([2]; female, 2 mg/kg, cats, Group 2, 2 mg/kg capsule, Fasted, Female, mean, read-out: t1/2 (converted)): 1.47 h | AUC(0-t) ([2]; female, 6 mg/kg, cats, Group 3, 6 mg/kg capsule, Fasted, Female, mean): 6130 ng·h/mL | AUC(0-inf) ([2]; female, 6 mg/kg, cats, Group 3, 6 mg/kg capsule, Fasted, Female, mean, read-out: AUC0-∞): 6350 ng·h/mL | Cmax ([2]; female, 6 mg/kg, cats, Group 3, 6 mg/kg capsule, Fasted, Female, mean, read-out: Cmax): 3110 ng/mL | Tmax ([2]; female, 6 mg/kg, cats, Group 3, 6 mg/kg capsule, Fasted, Female, mean, read-out: Tmax): 1.17 h | half-life ([2]; female, 6 mg/kg, cats, Group 3, 6 mg/kg capsule, Fasted, Female, mean, read-out: t1/2 (converted)): 4.98 h | AUC(0-t) ([2]; female, 10 mg/kg, cats, Group 4, 10 mg/kg capsule, Fasted, Female, mean): 10700 ng·h/mL | AUC(0-inf) ([2]; female, 10 mg/kg, cats, Group 4, 10 mg/kg capsule, Fasted, Female, mean, read-out: AUC0-∞): 10900 ng·h/mL | Cmax ([2]; female, 10 mg/kg, cats, Group 4, 10 mg/kg capsule, Fasted, Female, mean, read-out: Cmax): 7130 ng/mL | Tmax ([2]; female, 10 mg/kg, cats, Group 4, 10 mg/kg capsule, Fasted, Female, mean, read-out: Tmax): 0.73 h | half-life ([2]; female, 10 mg/kg, cats, Group 4, 10 mg/kg capsule, Fasted, Female, mean, read-out: t1/2 (converted)): 4.19 h | AUC(0-t) ([2]; male, 2 mg/kg, cats, Group 1, 2 mg/kg capsule, Fed, Male, mean): 1030 ng·h/mL | AUC(0-inf) ([2]; male, 2 mg/kg, cats, Group 1, 2 mg/kg capsule, Fed, Male, mean, read-out: AUC0-∞): 1220 ng·h/mL | Cmax ([2]; male, 2 mg/kg, cats, Group 1, 2 mg/kg capsule, Fed, Male, mean, read-out: Cmax): 407 ng/mL | Tmax ([2]; male, 2 mg/kg, cats, Group 1, 2 mg/kg capsule, Fed, Male, mean, read-out: Tmax): 1.65 h | half-life ([2]; male, 2 mg/kg, cats, Group 1, 2 mg/kg capsule, Fed, Male, mean, read-out: t1/2 (converted)): 3.12 h | AUC(0-t) ([2]; male, 2 mg/kg, cats, Group 2, 2 mg/kg capsule, Fasted, Male, mean): 2290 ng·h/mL | AUC(0-inf) ([2]; male, 2 mg/kg, cats, Group 2, 2 mg/kg capsule, Fasted, Male, mean, read-out: AUC0-∞): 1970 ng·h/mL | Cmax ([2]; male, 2 mg/kg, cats, Group 2, 2 mg/kg capsule, Fasted, Male, mean, read-out: Cmax): 1100 ng/mL | Tmax ([2]; male, 2 mg/kg, cats, Group 2, 2 mg/kg capsule, Fasted, Male, mean, read-out: Tmax): 1.01 h | half-life ([2]; male, 2 mg/kg, cats, Group 2, 2 mg/kg capsule, Fasted, Male, mean, read-out: t1/2 (converted)): 2.16 h | AUC(0-t) ([2]; male, 6 mg/kg, cats, Group 3, 6 mg/kg capsule, Fasted, Male, mean): 3650 ng·h/mL | AUC(0-inf) ([2]; male, 6 mg/kg, cats, Group 3, 6 mg/kg capsule, Fasted, Male, mean, read-out: AUC0-∞): 3750 ng·h/mL | Cmax ([2]; male, 6 mg/kg, cats, Group 3, 6 mg/kg capsule, Fasted, Male, mean, read-out: Cmax): 2970 ng/mL | Tmax ([2]; male, 6 mg/kg, cats, Group 3, 6 mg/kg capsule, Fasted, Male, mean, read-out: Tmax): 0.99 h | half-life ([2]; male, 6 mg/kg, cats, Group 3, 6 mg/kg capsule, Fasted, Male, mean, read-out: t1/2 (converted)): 2.79 h | AUC(0-t) ([2]; male, 10 mg/kg, cats, Group 4, 10 mg/kg capsule, Fasted, Male, mean): 7430 ng·h/mL | AUC(0-inf) ([2]; male, 10 mg/kg, cats, Group 4, 10 mg/kg capsule, Fasted, Male, mean, read-out: AUC0-∞): 7580 ng·h/mL | Cmax ([2]; male, 10 mg/kg, cats, Group 4, 10 mg/kg capsule, Fasted, Male, mean, read-out: Cmax): 4280 ng/mL | Tmax ([2]; male, 10 mg/kg, cats, Group 4, 10 mg/kg capsule, Fasted, Male, mean, read-out: Tmax): 1.33 h | half-life ([2]; male, 10 mg/kg, cats, Group 4, 10 mg/kg capsule, Fasted, Male, mean, read-out: t1/2 (converted)): 4.03 h | sedation scores (onychectomy in cats; 20 mg tablet Formulation A34 about 30 minutes before onychectomy): without an apparent effect on sedation scores | analgesia scores (onychectomy in cats; oral tablet about 30 minutes before onychectomy (grapiprant: 20 mg tablet Formulation A34, Day 0 only; Onsior: 6 mg, Days 0-2)): decreased analgesia scores (reduced pain) | Ki (dog EP4 receptors): 24.1 ± 2.7 nM
